The results in this text go back to patent US20080161232A1, “C5a Receptor Antagonist” (JERINI AG, priority 2005, published 2008).

Starred links: 1 amine or outer side, 2 acyl side, 3 side chain; linkers in the order of their positions; H or OH if unused. Positions of bridges follow the written chain, without caps; N, C: chain ends. Non-standard residues stand in square brackets, D forms with d. Residues, ends and D or L forms follow the SMILES beside them. *: point of attachment. Propanoyl(3,3-Ph2) = O=C(CC(c1ccccc1)c1ccccc1)*; Phe(4-tBu) = CC(C)(C)c1ccc(C[C@H](N)C(=O)O)cc1; NMe2Phe = CN(C)[C@@H](Cc1ccccc1)C(=O)*; 1Nal = N[C@@H](Cc1cccc2ccccc12)C(=O)O; 2Nal = N[C@@H](Cc1ccc2ccccc2c1)C(=O)O; Bta = N[C@@H](Cc1csc2ccccc12)C(=O)O; NMeF = CN[C@@H](Cc1ccccc1)C(=O)O; 2Thi = N[C@@H](Cc1cccs1)C(=O)O; Cha = N[C@@H](CC1CCCCC1)C(=O)O; dCha = N[C@H](CC1CCCCC1)C(=O)O; NHPhenethyl = c1ccc(CCN*)cc1; X23 = O=C(CC(O)c1ccccc1)*; Nle = CCCC[C@H](N)C(=O)O; Orn = NCCC[C@H](N)C(=O)O; Aze = O=C(O)[C@@H]1CCN1; CO = O=C([*:1])[*:2]; NHBu = CCCCN* Bounds are passed on as bounds.

The assay deals with T1, human C5aR(CD88) (Homo sapiens, UniProt P21730).
T1 construct: expressed in transfected cells; host or cells: rat basophilic leukemia cells (RBL)
T1 sequence (P21730 1-350): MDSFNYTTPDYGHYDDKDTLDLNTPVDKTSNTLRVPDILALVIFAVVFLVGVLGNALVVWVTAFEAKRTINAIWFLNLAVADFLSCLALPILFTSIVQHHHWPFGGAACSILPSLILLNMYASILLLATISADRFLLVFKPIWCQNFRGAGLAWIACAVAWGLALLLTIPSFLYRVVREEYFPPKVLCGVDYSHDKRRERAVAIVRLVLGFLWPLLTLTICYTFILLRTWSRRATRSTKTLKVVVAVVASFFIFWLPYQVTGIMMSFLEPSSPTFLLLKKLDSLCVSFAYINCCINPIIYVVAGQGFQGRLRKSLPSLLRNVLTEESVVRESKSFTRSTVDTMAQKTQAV
The experiment in a line: Determination of the IC50 value in an enzyme release assay (functional assay, antagonistic activity). The settings on record: for IC50: antagonistic activity, IC50 group in enzyme release assay, RBL cells expressing human C5aR(CD88), read-out: activity (group); for inhibitory activity (in words): functional assay of example 11, noteworthy = IC50 less than 200 nM. Type of assay: cell-based.

With `CC(=O)N[C@@H](Cc1ccccc1)C(=O)N[C@H]1CCCNC(=O)[C@H](Cc2cccs2)NC(=O)[C@H](Cc2c[nH]c3ccccc23)NC(=O)[C@@H](CC2CCCCC2)NC(=O)[C@@H]2CCCN2C1=O` [Compound 38, Ac-Phe-[Orn-Pro-cha-Trp-Thi]] (Ac-F[Orn]P[dCha]W[2Thi]; lactam 2-C), the IC50 lay in the range of 20 to 50 nM and the “inhibitory activity (in words)” value is recorded as “without significant loss of activity”. Besides, the “inhibitory activity (in words)” value (listed as Ac-Phe-[Orn-Pro-cha-Trp-Thi]) is given as “noteworthy inhibitory activity”. As for `CC(=O)N[C@@H](Cc1ccccc1)C(=O)N[C@H]1CCCNC(=O)[C@H](C)NC(=O)[C@H](Cc2c[nH]c3ccccc23)NC(=O)[C@@H](CC2CCCCC2)NC(=O)[C@@H]2CCCN2C1=O` [Compound 39] (Ac-F[Orn]P[dCha]WA; lactam 2-C), the IC50 was over 2000 nM. Same read-out and setting: then `CC(=O)N[C@@H](Cc1ccccc1)C(=O)N[C@@H](CCCN)C(=O)N1CCC[C@H]1C(=O)N[C@H](CC1CCCCC1)C(=O)N[C@@H](Cc1c[nH]c2ccccc12)C(=O)N[C@@H](Cc1ccccc1)C(N)=O` [Compound 51, Ac-Phe-Orn-Pro-cha-Trp-Phe-NH2] (Ac-F[Orn]P[dCha]WF-NH2), with 20 to 50 nM; and `CC(=O)N[C@@H](Cc1ccccc1)C(=O)N[C@@H](CCCN)C(=O)N1CC[C@H]1C(=O)N[C@H](CC1CCCCC1)C(=O)N[C@@H](Cc1csc2ccccc12)C(=O)N[C@@H](Cc1ccccc1)C(N)=O` [Compound 52, Ac-Phe-Orn-Aze-cha-Bta-Phe-NH2] (Ac-F[Orn][Aze][dCha][Bta]F-NH2), with 10 to 20 nM; and `CCCC[C@@H]1NC(=O)[C@H](Cc2c[nH]c3ccccc23)NC(=O)[C@@H](CC2CCCCC2)NC(=O)[C@@H]2CCCN2C(=O)[C@@H](NCc2ccccc2)CCCNC1=O` [Compound 56, Ph-CH2-[Orn-Pro-cha-Trp-Nle]], with 20 to 50 nM. Still for that read-out and setting: then `O=C1NCCC[C@H](NCc2ccccc2)C(=O)N2CCC[C@H]2C(=O)N[C@H](CC2CCCCC2)C(=O)N[C@@H](Cc2c[nH]c3ccccc23)C(=O)N[C@H]1Cc1ccccc1` [Compound 57, Ph-CH2-[Orn-Pro-cha-Trp-Phe]], with 20 to 50 nM; and `CC(=O)N[C@@H](Cc1ccccc1)C(=O)N[C@H]1CCCNC(=O)[C@H](Cc2cccc3ccccc23)NC(=O)[C@H](Cc2c[nH]c3ccccc23)NC(=O)[C@@H](CC2CCCCC2)NC(=O)[C@@H]2CCCN2C1=O` [Compound 58, Ac-Phe-[Orn-Pro-cha-Trp-1Ni]] (Ac-F[Orn]P[dCha]W[1Nal]; lactam 2-C), with 20 to 50 nM.

As to `CCCC[C@@H]1NC(=O)[C@H](Cc2c[nH]c3ccccc23)NC(=O)[C@@H](CC2CCCCC2)NC(=O)[C@@H]2CCCN2C(=O)[C@@H](NC(=O)CC(O)c2ccccc2)CCCNC1=O` (stereo partly drawn) [Compound 59, Ph-CH(OH)—CH2—CO-[Orn-Pro-cha-Trp-Nle]] (X23-[Orn]P[dCha]W[Nle]; lactam 1-C), the IC50 lay within 20 to 50 nM.

As to `CC(=O)N[C@@H](Cc1ccccc1)C(=O)N[C@@H](CCCN)C(=O)N1CCC[C@H]1C(=O)N[C@H](CC1CCCCC1)C(=O)N[C@@H](Cc1c[nH]c2ccccc12)C(=O)N[C@@H](Cc1ccc2ccccc2c1)C(N)=O` [Compound 64, Ac-Phe-Orn-Pro-cha-Trp-2Ni—NH2] (Ac-F[Orn]P[dCha]W[2Nal]-NH2), the IC50 is 20 to 50 nM. Same read-out and setting: then `CC(=O)N[C@@H](Cc1ccccc1)C(=O)N[C@@H](CCCN)C(=O)N1CCC[C@H]1C(=O)N[C@H](CC1CCCCC1)C(=O)N[C@@H](Cc1c[nH]c2ccccc12)C(=O)N[C@@H](CC1CCCCC1)C(N)=O` [Compound 65, Ac-Phe-Orn-Pro-cha-Trp-Cha-NH2] (Ac-F[Orn]P[dCha]W[Cha]-NH2), with 50 to 200 nM. Still for that read-out and setting: with `CC(=O)N[C@@H](Cc1cccs1)C(=O)N[C@@H](CCCN)C(=O)N1CC[C@H]1C(=O)N[C@H](CC1CCCCC1)C(=O)N[C@@H](Cc1csc2ccccc12)C(=O)N[C@@H](Cc1ccccc1)C(N)=O` [Compound 66, Ac-Thi-Orn-Aze-cha-Bta-Phe-NH2] (Ac-[2Thi][Orn][Aze][dCha][Bta]F-NH2) the figure was 10 to 20 nM; with `CC(=O)N[C@@H](Cc1ccccc1)C(=O)N[C@@H](CCCN)C(=O)N1CCC[C@H]1C(=O)N[C@H](CC1CCCCC1)C(=O)N[C@@H](Cc1c[nH]c2ccccc12)C(=O)N[C@@H](Cc1ccc(C(C)(C)C)cc1)C(N)=O` [Compound 68, Ac-Phe-Orn-Pro-cha-Trp-Eap-NH2] (Ac-F[Orn]P[dCha]W[Phe(4-tBu)]-NH2), 200 to 2000 nM. Regarding `CN(C)[C@@H](Cc1ccccc1)C(=O)N[C@@H](CCCN)C(=O)N1CCC[C@H]1C(=O)N[C@H](CC1CCCCC1)C(=O)N[C@@H](Cc1c[nH]c2ccccc12)C(=O)N[C@@H](Cc1ccccc1)C(N)=O` [Compound 69, Me2-Phe-Orn-Pro-cha-Trp-Phe-NH2] (NMe2Phe-[Orn]P[dCha]WF-NH2), the IC50 was 50 to 200 nM.

Regarding `NCCC[C@H](NC(=O)CC(c1ccccc1)c1ccccc1)C(=O)N1CCC[C@H]1C(=O)N[C@H](CC1CCCCC1)C(=O)N[C@@H](Cc1c[nH]c2ccccc12)C(=O)N[C@@H](Cc1ccccc1)C(N)=O` [Compound 70, Ph2-CH—CH2—CO-Orn-Pro-cha-Trp-Phe-NH2] ({Propanoyl(3,3-Ph2)}-[Orn]P[dCha]WF-NH2), the IC50 fell in the range of 200 to 2000 nM. On the same count and under the same terms, with `CC(=O)N[C@@H](Cc1ccccc1)C(=O)N[C@@H](CCCN)C(=O)N1CCC[C@H]1C(=O)N[C@H](CC1CCCCC1)C(=O)N[C@@H](Cc1c[nH]c2ccccc12)C(=O)NCCc1ccccc1` [Compound 72, Ac-Phe-Orn-Pro-cha-Trp-NH—CH2—CH2-Ph] (Ac-F[Orn]P[dCha]W-NHPhenethyl) the figure was 200 to 2000 nM. On the same count and under the same terms, then `CC(=O)N[C@@H](Cc1ccccc1)C(=O)N[C@@H](CCCN)C(=O)N1CC[C@H]1C(=O)N[C@H](CC1CCCCC1)C(=O)N[C@@H](Cc1csc2ccccc12)C(=O)NCCc1ccccc1` [Compound 73, Ac-Phe-Orn-Aze-cha-Bta-NH—CH2—CH2-Ph] (Ac-F[Orn][Aze][dCha][Bta]-NHPhenethyl), with 200 to 2000 nM; and `NCCC[C@H](NC(=O)[C@@H](N)Cc1ccccc1)C(=O)N1CCC[C@H]1C(=O)N[C@H](CC1CCCCC1)C(=O)N[C@@H](Cc1c[nH]c2ccccc12)C(=O)N[C@@H](Cc1ccccc1)C(N)=O` [Compound 74, H-Phe-Orn-Pro-cha-Trp-Phe-NH2] (H-F[Orn]P[dCha]WF-NH2), with 50 to 200 nM; and `CN[C@@H](Cc1ccccc1)C(=O)N[C@@H](CCCN)C(=O)N1CCC[C@H]1C(=O)N[C@H](CC1CCCCC1)C(=O)N[C@@H](Cc1c[nH]c2ccccc12)C(=O)N[C@@H](Cc1ccccc1)C(N)=O` [Compound 75, H—Me-Phe-Orn-Pro-cha-Trp-Phe-NH2] (H-[NMeF][Orn]P[dCha]WF-NH2), with 50 to 200 nM.

For the compound `CCCCNC(=O)N[C@@H](Cc1ccccc1)C(=O)N[C@@H](CCCN)C(=O)N1CCC[C@H]1C(=O)N[C@H](CC1CCCCC1)C(=O)N[C@@H](Cc1c[nH]c2ccccc12)C(=O)N[C@@H](Cc1ccccc1)C(N)=O` [Compound 76, Bu-NH—CO-Phe-Orn-Pro-cha-Trp-Phe-NH2] ({NHBu-CO}-F[Orn]P[dCha]WF-NH2), the IC50 is 200 to 2000 nM. On the same count and under the same terms, then `CC(=O)N[C@@H](Cc1cccs1)C(=O)N[C@@H](CCCN)C(=O)N1CCC[C@H]1C(=O)N[C@H](CC1CCCCC1)C(=O)N[C@@H](Cc1c[nH]c2ccccc12)C(=O)N[C@@H](Cc1ccccc1)C(N)=O` [Compound 77, Ac-Thi-Orn-Pro-cha-Trp-Phe-NH2] (Ac-[2Thi][Orn]P[dCha]WF-NH2), with 50 to 200 nM.
